In assay [1] the target is T1, Melatonin receptor type 1A (Homo sapiens, UniProt P48039). The experiment in a line: Displacement of 2-[125I]-iodomelatonin from human MT1 receptor expressed in CHO cells. In kind it is cell-based.
Assay [2] has as its target T2, Melatonin receptor type 1B (Homo sapiens, UniProt P49286).
T2 sequence (P49286 whole entry): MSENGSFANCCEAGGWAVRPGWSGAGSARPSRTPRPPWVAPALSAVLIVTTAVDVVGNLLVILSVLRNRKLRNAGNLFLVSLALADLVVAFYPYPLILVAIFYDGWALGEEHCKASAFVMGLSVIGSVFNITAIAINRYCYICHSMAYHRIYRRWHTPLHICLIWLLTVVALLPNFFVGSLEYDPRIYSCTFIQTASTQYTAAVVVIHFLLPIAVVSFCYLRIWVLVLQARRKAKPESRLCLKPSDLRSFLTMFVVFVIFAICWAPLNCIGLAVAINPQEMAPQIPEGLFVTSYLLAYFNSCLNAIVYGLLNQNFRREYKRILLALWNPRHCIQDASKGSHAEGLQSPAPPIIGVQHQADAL
Briefly: Displacement of 2-[125I]-iodomelatonin from human MT2 receptor expressed in CHO cells. It counts as cell-based.

The species entered for a further assay is Homo sapiens. The experiment in a line: Selectivity ratio of Ki for human MT1 receptor to Ki for human MT2 receptor.
In assay [3] the target is T3, Melatonin receptor type 1B (Homo sapiens) (UniProt P49286).
T3 sequence (whole entry): T2 sequence (P49286 whole entry)
The experiment in a line: Intrinsic activity at human MT2 receptor expressed in CHO cells. In kind it is cell-based.

Assay [4] addresses T1, Melatonin receptor type 1A. The experiment in a line: Antagonist activity at human MT1 receptor expressed in CHO cells assessed as inhibition of melatonin-induced activity at 10 to 100 nM. In kind it is cell-based.
The target of assay [5] is T1, Melatonin receptor type 1A. The experiment in a line: Intrinsic activity at human MT1 receptor expressed in CHO cells. It counts as cell-based.
The target in assay [6] is T3, Melatonin receptor type 1B (Homo sapiens). The experiment in a line: Antagonist activity at human MT2 receptor expressed in CHO cells assessed as inhibition of melatonin-induced activity at 10 to 100 nM. In kind it is cell-based.

Structures are written as SMILES. Calls of active or inactive are those of the source. No cut-off for these calls is given here.

T1 sequence (P48039 whole entry): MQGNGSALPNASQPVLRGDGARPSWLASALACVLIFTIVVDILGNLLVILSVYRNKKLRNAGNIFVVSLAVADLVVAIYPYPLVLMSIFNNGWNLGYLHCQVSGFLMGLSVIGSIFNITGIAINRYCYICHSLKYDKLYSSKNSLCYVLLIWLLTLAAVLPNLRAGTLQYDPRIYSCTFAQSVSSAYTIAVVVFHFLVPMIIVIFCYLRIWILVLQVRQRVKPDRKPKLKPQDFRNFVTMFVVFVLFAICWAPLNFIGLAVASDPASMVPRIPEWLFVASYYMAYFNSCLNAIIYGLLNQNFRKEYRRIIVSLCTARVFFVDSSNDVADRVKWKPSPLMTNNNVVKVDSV

The term Ki denotes a dissociation constant, usually derived from enzyme kinetics or from competition with a known ligand. Consider `C=CCC(=O)NCCc1c(CN2Cc3ccccc3C2)[nH]c2ccc(OC)cc12`, for which the Ki is 24 nM in assay [1] and 9.33 nM in assay [2].

For the compound `COc1ccc2[nH]c(CN3Cc4ccccc4C3)c(CCNC(=O)C3CCC3)c2c1`, the results for the Ki in assay [1] and in assay [2] were 112 nM and 200 nM, respectively.

`COc1ccc2[nH]c(CN3Cc4ccccc4C3)c(CCNC(=O)C3CC3)c2c1`: the results for the inhibitory constant (Ki) in assay [1] and in assay [2] were 61.7 nM and 33.9 nM, respectively.

In the case of `COc1ccc2[nH]c(Cn3ccc4ccccc43)c(CCNC(C)=O)c2c1`, the inhibition constant Ki in assay [1] is 182 nM; in assay [2] it was 5.75 nM.

As to `CCC(=O)NCCc1c(CN2Cc3ccccc3C2)[nH]c2ccc(OC)cc12`, the Ki in assay [1] is 5.62 nM; in assay [2], 3.72 nM.

`CCC(=O)NCCCc1cc(OC)ccc1OCc1cccc(OC)c1`: the Ki in assay [1] is 1350 nM; in assay [2], 1.7 nM. For the same compound, the Ratio Ki in the assay listed under Homo sapiens amounted to 790.

As for `COc1ccc2[nH]c(CN3CCc4ccccc43)c(CCNC(C)=O)c2c1`, in the assay listed under Homo sapiens, the Ratio Ki worked out at 95.

`COc1ccc2[nH]c(CN3CCc4ccccc4C3)c(CCNC(C)=O)c2c1`: the Ki in assay [1] is 251 nM; in assay [2] it was 21.4 nM.

With `COc1ccc2[nH]c(Cn3ccc4ccccc43)c(CCNC(=O)C3CCC3)c2c1`, the inhibitory constant (Ki) in assay [1] is 57.5 nM; in assay [2] it was 81.3 nM.

Regarding `COc1ccc2[nH]c(CN3Cc4ccccc4C3)c(CCNC(C)=O)c2c1`, the inhibitory constant (Ki) in assay [1] is 282 nM; in assay [2], 2.24 nM. Moreover, the result in assay [3] and in assay [5] was inactive. The inhibition result in assay [4] and in assay [6] was “Active” in each case. The Ratio Ki in the assay filed under Homo sapiens came out at 124.

(Values after ChEMBL document CHEMBL3217409 (Medchemcomm, 2011).)
